This note sets out measurements from patent publication US12306178B2 (priority 2022, dated 2025).

Assay [1] concerns AFB1-ScFV-AP bifunctional fusion protein. In kind it is binding.
Assay [2] has as its system DON-ScFV-AP bifunctional fusion protein. The class given is binding.

On to `CC(=O)O[C@@H]1C[C@]2(C)[C@@]3(CO)[C@H](O)C(=O)C(C)=C[C@H]3O[C@H]1[C@@]21CO1` [3-ADON, 3-acetyldeoxynivalenol], for which the IC50 is on record as >100.1 ppm in assay [1] and 2.3 ppb in assay [2]. For the same molecule, in assay [2], the “cross-reaction (in words)” value was “obvious cross-reaction”.
Regarding `CC(=O)OC[C@]12[C@H](O)C(=O)C(C)=C[C@H]1O[C@@H]1[C@H](O)C[C@@]2(C)[C@]12CO2` [15-ADON, 15-acetyldeoxynivalenol], the IC50 is recorded as >100.4 ppm in assay [1] and 64 ppb in assay [2].
In the case of `CC1=C[C@H]2O[C@@H]3[C@H](O)C[C@](C)([C@@]2(CO)[C@H](O)C1=O)[C@]31CO1` [DON, Deoxynivalenol], the IC50 in assay [1] is >10 ppm; in assay [2], 2.4 ppb.
On to `CC1=C[C@H]2O[C@@H]3[C@H](O[C@@H]4O[C@H](CO)[C@@H](O)[C@H](O)[C@H]4O)C[C@](C)([C@@]2(CO)[C@H](O)C1=O)[C@]31CO1` [DON-3G, deoxynivalenol-3-glucoside], for which the IC50 in assay [1] is listed as >50 ppm.
Same read-out and setting: as for `CCCC[C@@H](C)[C@@H](OC(=O)C[C@@H](CC(=O)O)C(=O)O)[C@H](C[C@@H](C)C[C@H](O)CCCC[C@@H](O)C[C@H](O)[C@H](C)N)OC(=O)C[C@@H](CC(=O)O)C(=O)O` [FB1, fumonisin B1], the figure is >28.6 ppm; as for `CCCC[C@@H](C)[C@@H](OC(=O)C[C@@H](CC(=O)O)C(=O)O)[C@H](C[C@@H](C)CCCCCC[C@@H](O)C[C@H](O)[C@H](C)N)OC(=O)C[C@@H](CC(=O)O)C(=O)O` [FB2, fumonisin B2], >28.6 ppm.
As to `CCCC[C@@H](C)[C@@H](OC(=O)C[C@@H](CC(=O)O)C(=O)O)[C@H](C[C@@H](C)C[C@H](O)CCCCCC[C@H](O)[C@H](C)N)OC(=O)C[C@@H](CC(=O)O)C(=O)O` [FB3, fumonisin B3], the IC50 in assay [1] is listed as >28.6 ppm.
As for `CC1=C[C@H]2O[C@@H]3[C@H](O)[C@@H](O)[C@](C)([C@@]2(CO)[C@H](O)C1=O)[C@]31CO1` [NIV, nivalenol], the IC50 in assay [1] is on record as >100.4 ppm; in assay [2], 610 ppb.
The like results for `C[C@@H]1Cc2c(Cl)cc(C(=O)N[C@@H](Cc3ccccc3)C(=O)O)c(O)c2C(=O)O1` [OTA, ochratoxin A] were, in that order, >1.9 ppm and >1.9 ppm.
The like results for `C[C@H]1CCCC(=O)CCC/C=C/c2cc(O)cc(O)c2C(=O)O1` [ZEN, zearalenone] were, in that order, >20 ppm and >20 ppm.
In the same order, the values of T-2 toxin are >100 ppm and >100 ppm.
Turning to aflatoxin B1 [AFB1], the IC50 in assay [1] was 0.5 ppb; in assay [2], >2 ppm.
In turn, aflatoxin B2 [AFB2] displayed an IC50 in assay [1] of 1.9 ppb.
Still for that read-out and setting: the same measure for aflatoxin G1 [AFG1]: 2.1 ppb.
For the molecule aflatoxin G2 [AFG2], the IC50 in assay [1] came to 8.1 ppb.
